Conditions: Liquid, Pycnometric method

FC(F)C(F)(F)OCC(F)(F)F [2,2,2-trifluoroethyl 1,1,2,2-tetrafluoroethyl ether]
Conditions	mass density [kg/m3]
279.15 K, 5663 kPa	1535.2
280.15 K, 6663 kPa	1534.9
280.15 K, 6673 kPa	1534.9
281.15 K, 7673 kPa	1534.6
281.15 K, 7685 kPa	1534.7
282.15 K, 8685 kPa	1534.4
282.15 K, 8696 kPa	1534.5
283.15 K, 9695 kPa	1534.2
283.15 K, 9705 kPa	1534.3
284.15 K, 10704 kPa	1534
284.15 K, 10712 kPa	1534
285.15 K, 11710 kPa	1533.8
285.15 K, 11717 kPa	1533.8
286.15 K, 12714 kPa	1533.6
286.15 K, 12720 kPa	1533.6
287.15 K, 13718 kPa	1533.4
287.15 K, 13722 kPa	1533.4
288.15 K, 14719 kPa	1533.2
288.15 K, 14722 kPa	1533.2
289.15 K, 15719 kPa	1533
289.15 K, 15720 kPa	1533
290.15 K, 16716 kPa	1532.8
290.15 K, 16717 kPa	1532.8
291.15 K, 17711 kPa	1532.6
291.15 K, 17712 kPa	1532.6
292.15 K, 18703 kPa	1532.5
292.15 K, 18704 kPa	1532.4
293.15 K, 19694 kPa	1532.3
294.15 K, 20683 kPa	1532.1
295.15 K, 21669 kPa	1531.9
296.15 K, 22653 kPa	1531.8
296.15 K, 22654 kPa	1531.8
297.15 K, 23636 kPa	1531.6
298.15 K, 24616 kPa	1531.4
298.15 K, 24617 kPa	1531.4
299.15 K, 25595 kPa	1531.3
299.15 K, 25596 kPa	1531.3
300.15 K, 26572 kPa	1531.1
300.15 K, 26573 kPa	1531.1
301.15 K, 6294 kPa	1484.4
301.15 K, 27548 kPa	1531
302.15 K, 7147 kPa	1484.2
302.15 K, 28521 kPa	1530.9
302.15 K, 28522 kPa	1530.9
303.15 K, 8010 kPa	1484
303.15 K, 8015 kPa	1484
303.15 K, 29493 kPa	1530.7
304.15 K, 8873 kPa	1483.8
304.15 K, 8874 kPa	1483.8
305.15 K, 9734 kPa	1483.6
306.15 K, 10592 kPa	1483.4
306.15 K, 10594 kPa	1483.4
307.15 K, 11449 kPa	1483.2
307.15 K, 11452 kPa	1483.2
308.15 K, 12303 kPa	1483
308.15 K, 12308 kPa	1483.1
309.15 K, 13157 kPa	1482.8
309.15 K, 13163 kPa	1482.9
310.15 K, 14009 kPa	1482.7
310.15 K, 14016 kPa	1482.7
311.15 K, 14859 kPa	1482.5
311.15 K, 14867 kPa	1482.5
312.15 K, 15708 kPa	1482.3
312.15 K, 15718 kPa	1482.4
313.15 K, 16557 kPa	1482.1
313.15 K, 16566 kPa	1482.2
314.15 K, 17405 kPa	1482
314.15 K, 17414 kPa	1482
315.15 K, 18252 kPa	1481.8
315.15 K, 18260 kPa	1481.8
316.15 K, 19097 kPa	1481.7
316.15 K, 19105 kPa	1481.7
317.15 K, 19942 kPa	1481.5
317.15 K, 19949 kPa	1481.5
318.15 K, 20785 kPa	1481.4
318.15 K, 20791 kPa	1481.4
319.15 K, 21626 kPa	1481.2
319.15 K, 21632 kPa	1481.2
320.15 K, 22467 kPa	1481.1
320.15 K, 22471 kPa	1481.1
321.15 K, 23306 kPa	1480.9
321.15 K, 23311 kPa	1480.9
322.15 K, 24144 kPa	1480.8
322.15 K, 24148 kPa	1480.8
323.15 K, 24980 kPa	1480.6
323.15 K, 24983 kPa	1480.6
324.15 K, 25816 kPa	1480.5
324.15 K, 25819 kPa	1480.5
325.15 K, 26650 kPa	1480.4
325.15 K, 26653 kPa	1480.4
326.15 K, 27482 kPa	1480.2
326.15 K, 27484 kPa	1480.2
327.15 K, 28313 kPa	1480.1
327.15 K, 28315 kPa	1480.1
328.15 K, 29144 kPa	1480
328.15 K, 29145 kPa	1480
329.15 K, 7678 kPa	1420.3
329.15 K, 7689 kPa	1420.3
329.15 K, 29973 kPa	1479.9
329.15 K, 29975 kPa	1479.9
330.15 K, 8385 kPa	1420.1
330.15 K, 8394 kPa	1420.1
331.15 K, 9091 kPa	1420
331.15 K, 9099 kPa	1419.9
332.15 K, 9796 kPa	1419.8
332.15 K, 9803 kPa	1419.8
333.15 K, 10500 kPa	1419.6
333.15 K, 10506 kPa	1419.6
334.15 K, 11204 kPa	1419.5
334.15 K, 11209 kPa	1419.5
335.15 K, 11908 kPa	1419.3
335.15 K, 11912 kPa	1419.3
336.15 K, 12610 kPa	1419.2
336.15 K, 12614 kPa	1419.1
337.15 K, 13313 kPa	1419
337.15 K, 13315 kPa	1419
338.15 K, 14014 kPa	1418.8
338.15 K, 14016 kPa	1418.8
339.15 K, 14714 kPa	1418.7
339.15 K, 14716 kPa	1418.7
340.15 K, 15413 kPa	1418.5
340.15 K, 15416 kPa	1418.5
341.15 K, 16111 kPa	1418.4
341.15 K, 16114 kPa	1418.4

From the NIST ThermoML archive (doi:10.1007/s10765-010-0766-0)
